“Also recorded” adds a separate entry of the source.
Experiments:
[1] = test system: CCL5-induced cellular recruitment into the peritoneal cavity; assay: CCL5-induced peritoneal cellular recruitment; format: in vivo, mouse; conditions: CCL5 binders administered 30 min prior to CCL5 (Figure 4A, B)
CCR1 = molecular target: T1, CCR1 (Homo sapiens, UniProt P13501); assay: Equilibrium competition receptor binding assay (SPA), [125I]-CCL5 on CHO/CCR1 membranes; conditions: relative to Molecule 1
T1 construct: expressed in transfected cells; host or cells: CHO
T1 sequence (P13501 24-91): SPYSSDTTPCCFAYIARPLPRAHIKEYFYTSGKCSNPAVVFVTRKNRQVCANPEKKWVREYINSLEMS
Experimental: (§1) The assays were carried out on membranes from CHO transfectants expressing CCR1 or CCR5, as described previously (Severin et al., [2010]). Briefly, serial dilutions of the compounds were prepared in binding buffer (50 mM TrisHCl, pH 7.2, containing 1 mM CaCl2, 5 mM MgCl2, and 0.5% BSA). Equal volumes of membrane preparation at 80 μg/ml and scintillation proximity assay (SPA) beads were mixed before adding them to a 96 well filter plate, giving a final membrane concentration in the assay of 20 μg/ml. ^125I labeled chemokines were dissolved in binding buffer at a concentration of 0.4 nM. The assay was started by the addition of 25 μL [^125I]-CCL5 to give a concentration of 0.1 nM, in a final assay volume of 100 μL. The plates were incubated for 4 h. Radioactivity was counted with a beta counter for 1 min/well and the data analyzed using Graphpad Prism software. The radioligand was stored at −20°C and was used until the cpm of bound chemokine was ≥ 300 cpm.

CCR1 (Homo sapiens) = molecular target: T2, CCR1 (Homo sapiens); assay: as above; conditions: [125I]-CCL5 0.1 nM, CHO/CCR1 membranes, SPA; read-out: IC50 for the inhibition of CCL5 binding to CCR1
T2 construct: expressed in transfected cells; host or cells: CHO
Experimental: as §1

CCL5 binding to heparin = molecular target: T3, CCL5 binding to heparin (Homo sapiens, UniProt P13501); assay: Immobilized heparin competition binding assay ([125I]-CCL5 on heparin-Sepharose beads); conditions: [125I]-CCL5 0.05 nM, 4 h, read-out: IC50 for the inhibition of CCL5 binding to heparin
T3 sequence (P13501 24-91): T1 sequence (P13501 24-91)
Experimental: Competition experiments were performed as described elsewhere (Severin et al., [2010]). Briefly, heparin-Sepharose beads (Sepharose beads or binding buffer as a background control) and increasing amounts of antagonist were added to each well of a 96 well filter plate. [^125I]-CCL5, was added last, to reach a final concentration of 0.05 nM. The plates were incubated on a shaker at room temperature for 4 h. Each experiment was performed in triplicate, and the results are given as the mean of the three assays.

[2] = test system: citrated plasma from healthy human blood donors; assay: Anti-coagulation assay: Activated Partial Thromboplastin Time (APTT)
Experimental: Activated Partial Thromboplastin Time (APTT) assays were performed by GlycoMar. 10 mg/ml stock solutions of NisS, StachS, and MHxS, were prepared using dH2O and stored at −20°C until use. Samples were tested at 1 mg/ml. All further dilutions were in dH2O. Prior to each assay, a calibration curve of heparin ranging from 0 to 10 IU/ml was prepared using 5th International Standard Heparin. (GlycoMar ID:92, batch 97/578, Expiry 21SEP10). Fresh human blood from healthy human blood donors was collected into S-Monovette Coagulation tubes from Sarstedt. Nine parts of freshly drawn venous blood were collected into one part trisodium citrate (0.106 M). Plasma was obtained by centrifugation at 1500 × g for 10 min. Each of the carbohydrate samples was diluted and tested at 1 mg/ml in the first instance. MHxS was subsequently tested at 0.1 mg/ml to be within the time frame of the standard curve. The APTT assay was run on an ACL 9000 Coagulation Analyzer. The coagulation time of HemosIL Normal Control (cat no. 0020003110) was checked. Samples, standards and controls were mixed 1:10 with citrated plasma in a test tube, loaded into the ACL 9000 carousel and analyzed using the extended APTT run program.

[3] = test system: leukocyte recruitment into the synovial (knee) cavity; assay: Antigen-induced arthritis (AIA) model, mBSA; format: in vivo, mice; conditions: 50 μg s.c. immediately after mBSA; cells counted at 24 h
Experimental: Induction of disease was performed by injection of 10 μg methylated bovine serum albumin (mBSA) as a 10 μL injection into the synovial cavity. Test compounds, at a total dose of 50 μg were injected in a total volume of 200 μL subcutaneously immediately after mBSA administration. Group sizes were 4–6 animals. Total leukocytes (A), neutrophils (B), and mononuclear cells (C) in the synovial cavity were enumerated 24 h after mBSA injection (Sachs et al., [2011]).
Figure 6 Inhibition of antigen induced arthritis. An injection of mBSA into the synovial cavity was used to induce disease. 50 μg of the inhibitors were administered s.c. immediately after the mBSA injection, and the cells in the synovial cavity were enumerated 24 h later. (A) Total cells; (B) […]; (C) mononuclear cells. ^*P < 0.05.

[4] = test system: paw thickness after SRBC challenge; assay: Delayed-type hypersensitivity (DTH) model, SRBC; format: in vivo, BALB/c mice
Experimental: Female BALB/c mice were immunized with 2 × 10^6 sheep red blood cells (SRBC) by subcutaneous route (s.c.) at the base of the tail. Five days later mice were challenged with an s.c. injection of 2 × 10^6 SRBC into the softpaw of the left hindpaw. The paw thickness was measured 21 h later and the difference calculated based on values obtained before challenge. MHxS, NisS, and StachS were injected s.c. at a dose of 10 mg/kg, 30 min before and 8 h after challenge. Vehicle was 0.02% BSA diluted in PBS. The reference compound, dexamethasone, was diluted in saline and administered by oral gavage 30 min before challenge. Group sizes were 6 for sham and 8 for all other groups.
Figure 5 Inhibition of delayed-type hypersensitivity. Immunization was performed by s.c. administration of SRBC, followed by a challenge in the hindpaw 5 days later. The persulfated oligosaccharides (10 mg/kg) were administered 30 min prior and 8 h after the challenge. Dexamethasone was used as a positive control, and paw thickness was measured 21 h following the challenge. The statistical differences vs. the control group (mice challenged with SRBC and treated with vehicle for the compounds 0.02% BSA diluted in PBS) are shown whenever present and indicated by ^*P <0.05>; ^***P < 0.001. TEXT PRINTED IN THE PICTURE: dexamethasone: 47% *** | MHxS: 39% *** | NisS: 20% * | StachS: 41% ***

[5] = test system: thioglycollate-induced cellular recruitment into the peritoneal cavity; assay: Thioglycollate-induced peritoneal cellular recruitment; format: in vivo, C3H/Hen mice; conditions: thioglycollate i.p.; compound i.p. 30 min before and 24 h later; cells counted at 48 h (Figure 4C, D)
Experimental: CCL5-induced peritoneal recruitment was performed as described (Johnson et al., [2004]). Thioglycollate-induced cellular recruitment was mediated by the administration of 40 mL/kg of 3% thioglycollate i.p. in 7- to 8-week-old female C3H/Hen mice (JANVIER). Sham mice were injected with 40 mL/kg of NaCl (0.9%, LPS free). Saline (vehicle, control group) or Maltohexaose Sulfate at doses ranging from 1 to 0.01 mg/kg diluted in a volume ratio of 10 mL/kg and were administered i.p. 30 min before the thioglycollate stimulus, and 24 h later. An additional group of mice was injected with a single dose of 3 mg/kg dexamethasone 1 h before challenge as a reference control. Mice were sacrificed 48 h post-thioglycollate injection, the peritoneal cavity was washed twice with 5 mL of […] EDTA solution in PDB, pH 7.4. The peritoneal lavage fluid was centrifuged and resuspended in 1 mL of the solution and recruited cells were counted with a cell counter (Beckman-Coulter, ACT5Diff AD32097).
Figure 4 Inhibition of peritoneal cellular recruitment. Cellular recruitment into the peritoneal cavity was induced by CCL5 (A) and (B) and inhibited by different doses of CCL5 binders administered 30 min prior to the CCL5 administration. […]

Compound	cell recruitment to the peritoneum [1]	tighter interaction than Molecule 1 in the CCR1 binding assay (CCR1) [fold]	IC50 (CCR1 (Homo sapiens)) [nM]	IC50 (CCL5 binding to heparin) [nM]	Anticoagulant activity (heparin-equivalent) ([2]; calibrated against heparin standard curve, samples at 1 mg/ml (MHxS 0.1 mg/ml)) [IU/mg]	anticoagulant potency reduced compared to heparin ([2]; relative to heparin) [fold]	mononuclear cell recruitment into the knee cavity [3]	neutrophil recruitment into the knee cavity [3]	reduction of paw thickness compared with dexamethasone ([4]; 10 mg/kg s.c. at −30 min and +8 h)	inhibition of paw thickness, dose-response ([4]; 0.1, 1 and 10 mg/kg at −30 min and +8 h post-challenge, data not shown)	inhibition of paw swelling ([4]; oligosaccharides 10 mg/kg s.c. at −30 min and +8 h, dexamethasone by oral gavage 30 min before challenge, paw thickness at 21 h) [%]	cell recruitment to the peritoneal cavity [5]
O=C(CCCCCCCCCCNS(=O)(=O)c1ccc(O)c(C(=O)O)c1)Nc1cc(C(=O)O)c(O)c(S(=O)(=O)O)c1 [Molecule 3, 5-[(11-{[(3-carboxy-4hydroxyphenyl)sulfonyl]amino}undecanoyl)amino]-2-hydroxy-3-sulfobenzoic acid]	enhancement of cell recruitment; also recorded: no inhibition of recruitment, rather an enhancement at the highest dose	3	2500									
persulfated MHx [MHxS]				1270 ± 670	11.87 ± 3.07	12	statistically significant reduction	statistically significant reduction	comparable effect	statistically significant inhibitions were shown only for the highest dose	39	enhanced recruitment, albeit moderately

— PMC3472544, “Glycosaminoglycan analogs as a novel anti-inflammatory strategy” (Frontiers in Immunology, 2012)
